In the supplement of paper PMC11451515:

Assays:
Conditions in all cases: 48 h
[1] = tested on: NOMO1; experiment: AUC of viability dose-response curve (% viability x log10 dose units); higher = less sensitive
In short: (§1)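 Leukemia cells adapted to each medium were seeded in 1536-well plates (500 or 1000 cells/well) and given library compounds in DMSO for 48 h at 37°C. The 11 threefold doses spanned 47 μM to 0.79 nM, and CellTiter-Glo One luminescence was normalised per plate to DMSO and cell-free wells before four-parameter log-logistic fitting on log10 dose. Area under the curve was integrated with the trapezoidal rule, scaling curves above full viability and removing curves that failed quality control.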

[2] = tested on: P12-Ichikawa; experiment: as above
In short: as §1

[3] = tested on: SEM cells; experiment: as above
In short: as §1

[4] = tested on: SEM cells; experiment: cell viability relative to DMSO control; higher = less cytotoxic
In short: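 Viability was expressed as a per-plate percentage of DMSO wells, with cell-free wells as background. Leukemia cells (NOMO1 or SEM at 500 cells/well, P12-Ichikawa at 1000 cells/well) were adapted for at least four passages in each medium and seeded in 1536-well plates (5 μl). Library compounds in DMSO were pin-dosed over an 11-point threefold series from 47 μM to 0.79 nM, and CellTiter-Glo One luminescence was read after 48 h at 37°C.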

COc1ccc2cc3[n+](cc2c1OC)CCc1cc2c(cc1-3)OCO2
AUC of viability dose-response curve
Conditions | [1] | [2] | [3]
HPLM + 10% dialyzed FBS | 431 | 429 | 445
RPMI 5 mM glucose + 10% FBS | 441 | 390 | 437
RPMI 5 mM glucose + 10% dialyzed FBS | 442 | 411 | 428

COc1ccc(COc2cc3oc(=O)c4cc(C(C)O)ccc4c3cc2OC)cc1 (configuration not stated)
AUC of viability dose-response curve
Conditions | [1] | [2] | [3]
HPLM + 10% dialyzed FBS | 446 | 457 | 451
RPMI 5 mM glucose + 10% FBS | 449 | 444 | 450
RPMI 5 mM glucose + 10% dialyzed FBS | 455 | 434 | 461

CC(C)(C)c1nc(-c2cccc(N[S+](=O)([O-])c3c(F)cccc3F)c2F)c(-c2ccnc(N)n2)s1
AUC of viability dose-response curve
Conditions | [1] | [2] | [3]
HPLM + 10% dialyzed FBS | 423 | 428 | 439
RPMI 5 mM glucose + 10% FBS | 447 | 409 | 430
RPMI 5 mM glucose + 10% dialyzed FBS | 434 | 385 | 425

CC(=O)c1cnc2ccc(-c3cc(Cl)c(O)c(Cl)c3)nc2c1N[C@H]1CC[C@H](CN(C)C)CC1
[4], HPLM + 10% dialyzed FBS
Conditions | cell viability [%]
0.000781 µM | 110
0.00234 µM | 101
0.00702 µM | 105
0.0211 µM | 99.2
0.0632 µM | 63.5
0.19 µM | 25.4
0.569 µM | 16.2
1.71 µM | 6.2
5.12 µM | 6.52
15.4 µM | 5.71
46.1 µM | 6.59

AUC of viability dose-response curve
Conditions | [1] | [2] | [3]
HPLM + 10% dialyzed FBS | 211 | 277 | 218
RPMI 5 mM glucose + 10% FBS | 237 | 256 | 213
RPMI 5 mM glucose + 10% dialyzed FBS | 237 | 253 | 208

Cl.Cl.Clc1ccc(Nc2nnc(Cc3ccncc3)c3ccccc23)cc1
AUC of viability dose-response curve
Conditions | [1] | [2] | [3]
HPLM + 10% dialyzed FBS | 448 | 442 | 449
RPMI 5 mM glucose + 10% FBS | 469 | 472 | 446
RPMI 5 mM glucose + 10% dialyzed FBS | 460 | 446 | 357

O=C(/C=C/c1ccc(CN(CCO)CCc2c[nH]c3ccccc23)cc1)NO
AUC of viability dose-response curve
Conditions | [1] | [2] | [3]
HPLM + 10% dialyzed FBS | 296 | 275 | 262
RPMI 5 mM glucose + 10% FBS | 295 | 271 | 261
RPMI 5 mM glucose + 10% dialyzed FBS | 303 | 277 | 269

CN1C(=O)C(=C\C2=C1N=C(NC3=CC=CC(=C3)C(O)=O)N=C2)/C4=C(Cl)C=CC=C4Cl
cell viability [%], [4]
Conditions | HPLM + 10% dialyzed FBS | RPMI 5 mM glucose + 10% FBS | RPMI 5 mM glucose + 10% dialyzed FBS
0.000781 µM | 106 | 103 | 106
0.00234 µM | 114 | 124 | 118
0.00702 µM | 108 | 132 | 136
0.0211 µM | 112 | 114 | 130
0.0632 µM | 110 | 125 | 121
0.19 µM | 116 | 123 | 115
0.569 µM | 107 | 90.9 | 100
1.71 µM | 110 | 101 | 116
5.12 µM | 104 | 84.2 | 97
15.4 µM | 67.4 | 65.6 | 73.1
46.1 µM | 31.9 | 25 | 37.8

AUC of viability dose-response curve
Conditions | [1] | [2] | [3]
HPLM + 10% dialyzed FBS | 465 | 468 | 439
RPMI 5 mM glucose + 10% FBS | 467 | 465 | 405
RPMI 5 mM glucose + 10% dialyzed FBS | 461 | 463 | 426

COc1ccc(C(=O)N2CCCC2=O)cc1
AUC of viability dose-response curve
Conditions | [1] | [2] | [3]
HPLM + 10% dialyzed FBS | 447 | 447 | 449
RPMI 5 mM glucose + 10% FBS | 456 | 456 | 422
RPMI 5 mM glucose + 10% dialyzed FBS | 467 | 439 | 461

O=C1NCCc2[nH]c(-c3ccncc3)cc21
[4], HPLM + 10% dialyzed FBS
Conditions | cell viability [%]
0.000781 µM | 106
0.00234 µM | 118
0.00702 µM | 119
0.0211 µM | 128
0.0632 µM | 133
0.19 µM | 140
0.569 µM | 147
1.71 µM | 149
5.12 µM | 149
15.4 µM | 41.2
46.1 µM | 8.55

AUC of viability dose-response curve
Conditions | [1] | [2] | [3]
HPLM + 10% dialyzed FBS | 428 | 433 | 421
RPMI 5 mM glucose + 10% FBS | 439 | 428 | 423
RPMI 5 mM glucose + 10% dialyzed FBS | 431 | 426 | 430

CN(C)Cc1c(C(=O)NCCOc2ccc(C(=O)NO)cc2)oc2ccccc12
AUC of viability dose-response curve
Conditions | [1] | [2] | [3]
HPLM + 10% dialyzed FBS | 366 | 347 | 324
RPMI 5 mM glucose + 10% FBS | 372 | 345 | 326
RPMI 5 mM glucose + 10% dialyzed FBS | 375 | 357 | 332

Cc1cn[nH]c1
cell viability [%], [4]
Conditions | HPLM + 10% dialyzed FBS | RPMI 5 mM glucose + 10% dialyzed FBS
0.000781 µM | 89.9 | 106
0.00234 µM | 115 | 121
0.00702 µM | 121 | 119
0.0211 µM | 115 | 131
0.0632 µM | 118 | 123
0.19 µM | 122 | 131
0.569 µM | 121 | 138
1.71 µM | 121 | 123
5.12 µM | 114 | 143
15.4 µM | 69 | 94.6
46.1 µM | 95.6 | 115

AUC of viability dose-response curve
Conditions | [1] | [2] | [3]
HPLM + 10% dialyzed FBS | 456 | 461 | 456
RPMI 5 mM glucose + 10% FBS | 471 | 469 | 458
RPMI 5 mM glucose + 10% dialyzed FBS | 465 | 461 | 476

Cc1nc(NC(=O)N2CCC[C@H]2C(N)=O)sc1-c1csc(C(C)(C)C)n1
AUC of viability dose-response curve
Conditions | [1] | [2] | [3]
HPLM + 10% dialyzed FBS | 323 | 331 | 309
RPMI 5 mM glucose + 10% FBS | 346 | 334 | 302
RPMI 5 mM glucose + 10% dialyzed FBS | 335 | 350 | 312

CC[C@@H]1C(=O)N(C)c2cnc(Nc3ccc(C(=O)NC4CCC(N5CCN(CC6CC6)CC5)CC4)cc3OC)nc2N1C(C)C (some centres not stated)
AUC of viability dose-response curve
Conditions | [1] | [2] | [3]
HPLM + 10% dialyzed FBS | 276 | 201 | 199
RPMI 5 mM glucose + 10% FBS | 259 | 225 | 227
RPMI 5 mM glucose + 10% dialyzed FBS | 259 | 225 | 221

Cn1cc(-c2ccc3nnc(Sc4ccc5ncccc5c4)n3n2)cn1
AUC of viability dose-response curve
Conditions | [1] | [2] | [3]
HPLM + 10% dialyzed FBS | 463 | 460 | 457
RPMI 5 mM glucose + 10% FBS | 449 | 448 | 475
RPMI 5 mM glucose + 10% dialyzed FBS | 455 | 459 | 472

C=CCNc1c(O)cc2c(O)c1C[C@@H](C)C[C@H](OC)[C@H](O)[C@@H](C)/C=C(/C)[C@H](OC(N)=O)[C@@H](OC)/C=C\C=C(\C)C(=O)N2
AUC of viability dose-response curve
Conditions | [1] | [2] | [3]
HPLM + 10% dialyzed FBS | 419 | 428 | 336
RPMI 5 mM glucose + 10% FBS | 411 | 398 | 324
RPMI 5 mM glucose + 10% dialyzed FBS | 401 | 410 | 305
